Read-outs that look alike come from different tables or passages of the source. Starred links: 1 amine or outer side, 2 acyl side, 3 side chain; linkers in the order of their positions; H or OH if unused. Positions of bridges follow the written chain, without caps; N, C: chain ends. Non-standard residues stand in square brackets, D forms with d. Residues, ends and D or L forms follow the SMILES beside them. ξ: configuration not given here. *: point of attachment. Bip(4'-(3-HOOC-benzamido)) = N[C@@H](Cc1ccc(-c2ccc(NC(=O)c3cccc(C(=O)O)c3)cc2)cc1)C(=O)O; X2 = O=C(O)c1ccc(CNC(=O)c2cccc(-c3ccc(C[C@H](N[*:1])C(=O)[*:2])cc3)c2)cc1; X38 = O=C(O)C1CCC(C(=O)Nc2ccc(-c3ccc(C[C@H](N[*:1])C(=O)[*:2])cc3)cc2)CC1; X5 = Cn1nc(C(=O)Nc2ccc(-c3ccc(C[C@H](N[*:1])C(=O)[*:2])cc3)cc2)c2ccccc21; Bip(4'-NHBz) = N[C@@H](Cc1ccc(-c2ccc(NC(=O)c3ccccc3)cc2)cc1)C(=O)O; Bip(4'-NH) = O=C([C@H](Cc1ccc(-c2ccc(N[*:3])cc2)cc1)N[*:1])[*:2]; X14 = O=C([C@H](Cc1ccc(-c2cccc(C(=O)[*:3])c2)cc1)N[*:1])[*:2]; Bip(4'-COOH) = N[C@@H](Cc1ccc(-c2ccc(C(=O)O)cc2)cc1)C(=O)O; Bip(4'-NHAc) = CC(=O)Nc1ccc(-c2ccc(C[C@H](N)C(=O)O)cc2)cc1; Ala(morpholin-4-yl) = N[C@@H](CN1CCOCC1)C(=O)O; Benzoyl(3-OCH2COOH) = O=C(O)COc1cccc(C(=O)*)c1; Phe(3-CONH2) = NC(=O)c1cccc(C[C@H](N)C(=O)O)c1; Benzoyl(4-Ph) = O=C(c1ccc(-c2ccccc2)cc1)*; Bip = N[C@@H](Cc1ccc(-c2ccccc2)cc1)C(=O)O; Ala(4-THP) = N[C@@H](CC1CCOCC1)C(=O)O; X15 = O=C(O)c1cccc(Oc2ccccc2N*)c1; Cya = N[C@@H](CS(=O)(=O)O)C(=O)O; 2Thi = N[C@@H](Cc1cccs1)C(=O)O; Cha = N[C@@H](CC1CCCCC1)C(=O)O; Chg = N[C@H](C(=O)O)C1CCCCC1; ξV = CC(C)C(N)C(=O)O; Sar = CNCC(=O)O
Biological target: TNFα (Homo sapiens, UniProt P01375)
Assay: TNF-Induced HEK-Blue Assay
Format: cell-based
[1] = HEK-Blue-CD40L cells, NF-kB-driven secreted alkaline phosphatase reporter, TNFα 0.5 ng/ml, 18 h, read-out: TNF induced HEK-Blue assay IC50 value

TNFα, sequence (P01375 77-233 limits assumed): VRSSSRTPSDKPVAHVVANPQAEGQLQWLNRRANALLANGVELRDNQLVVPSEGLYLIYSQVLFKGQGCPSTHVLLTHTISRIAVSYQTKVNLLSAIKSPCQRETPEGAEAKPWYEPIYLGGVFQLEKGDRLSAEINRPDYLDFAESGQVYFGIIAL

| Compound | IC50 [1] | IC50 |
| --- | --- | --- |
| CC(=O)Nc1ccc(-c2ccc(C[C@@H]3NC(=O)[C@H](Cc4ccc(-c5ccccc5)cc4)NC(=O)[C@H](CC4CCCCC4)NC(=O)CSC[C@@H](C(=O)NCC(N)=O)NC(=O)[C@H](CC(C)C)NC(=O)[C@H](Cc4cnc[nH]4)NC(=O)[C@H](C4CCCCC4)NC(=O)[C@@H]4CCCN4C(=O)[C@H](CC(N)=O)NC(=O)[C@@H](CCCNC(=N)N)NC(=O)[C@H](CC(=O)O)NC(=O)[C@H](Cc4cnc[nH]4)NC(=O)CN(C)C3=O)cc2)cc1 [Example 301] ({CH2CO}-[Cha][Bip][Bip(4'-NHAc)][Sar]HD[dR]NP[Chg]HLCG-NH2; thioether N-13) | 50 to 200 nM |  |
| CC(C)C[C@@H]1NC(=O)[C@H](CCCNC(=N)N)NC(=O)C(C(C)C)NC(=O)[C@@H]2CCCN2C(=O)[C@H](C(C)C)NC(=O)[C@@H](CCCNC(=N)N)NC(=O)[C@H](CC(=O)O)NC(=O)[C@@H]2CCCN2C(=O)CN(C)C(=O)[C@H](Cc2ccc(-c3cccc(C(=O)NCc4ccc(C(=O)O)cc4)c3)cc2)NC(=O)[C@H](Cc2ccc(-c3ccccc3)cc2)NC(=O)[C@H](CC2CCOCC2)NC(=O)CSC[C@@H](C(=O)NCC(N)=O)NC1=O (stereo partly drawn) [Example 303] ({CH2CO}-[Ala(4-THP)][Bip][X2][Sar]PD[dR]VP[ξV]RLCG-NH2; thioether N-13) | 200 to 2000 nM |  |
| CC(C)C[C@@H]1NC(=O)[C@H](CCCNC(=N)N)NC(=O)[C@H](C(C)C)NC(=O)[C@@H]2CCCN2C(=O)[C@H](C(C)C)NC(=O)[C@@H](CCCNC(=N)N)NC(=O)[C@H](CC(=O)O)NC(=O)[C@@H]2CCCN2C(=O)CN(C)C(=O)[C@H](Cc2ccc(-c3ccc(NC(=O)c4nn(C)c5ccccc45)cc3)cc2)NC(=O)[C@H](Cc2ccc(-c3ccccc3)cc2)NC(=O)[C@H](CC2CCOCC2)NC(=O)CSC[C@@H](C(=O)NCC(N)=O)NC1=O [Example 304] ({CH2CO}-[Ala(4-THP)][Bip][X5][Sar]PD[dR]VPVRLCG-NH2; thioether N-13) | < 50 nM |  |
| CC[C@H](C)[C@@H]1NC(=O)[C@@H](CCCNC(=N)N)NC(=O)[C@H](CC(=O)O)NC(=O)[C@H](Cc2cnc[nH]2)NC(=O)CN(C)C(=O)[C@H](Cc2ccc(-c3ccc(NC(=O)c4cccc(C(=O)O)c4)cc3)cc2)NC(=O)[C@H](Cc2ccc(-c3ccccc3)cc2)NC(=O)[C@H](CC2CCCCC2)NC(=O)CSC[C@@H](C(=O)NCC(N)=O)NC(=O)[C@H](CC(C)C)NC(=O)[C@H](Cc2cnc[nH]2)NC(=O)[C@H](C(C)C)NC(=O)[C@@H]2CCCN2C1=O [Example 305] ({CH2CO}-[Cha][Bip][Bip(4'-(3-HOOC-benzamido))][Sar]HD[dR]IPVHLCG-NH2; thioether N-13) | < 50 nM |  |
| CC(C)C[C@@H]1NC(=O)[C@H](CCCNC(=N)N)NC(=O)[C@H](C(C)C)NC(=O)[C@@H]2CCCN2C(=O)[C@H](C(C)C)NC(=O)[C@@H](CCCNC(=N)N)NC(=O)[C@H](CC(=O)O)NC(=O)[C@@H]2CCCN2C(=O)CN(C)C(=O)[C@H](Cc2ccc(-c3cccc(C(=O)Nc4ccccc4Oc4cccc(C(=O)O)c4)c3)cc2)NC(=O)[C@H](Cc2ccc(-c3ccccc3)cc2)NC(=O)[C@H](CN2CCOCC2)NC(=O)CSC[C@@H](C(=O)NCC(N)=O)NC1=O [Example 306] ({CH2CO}-[Ala(morpholin-4-yl)][Bip][X14](X15)[Sar]PD[dR]VPVRLCG-NH2; thioether N-13) | 50 to 200 nM |  |
| CC[C@H](C)[C@@H]1NC(=O)[C@@H](CCCNC(=N)N)NC(=O)[C@H](CC(=O)O)NC(=O)[C@H](Cc2cnc[nH]2)NC(=O)CN(C)C(=O)[C@H](Cc2ccc(-c3ccc(NC(=O)c4ccc(-c5ccccc5)cc4)cc3)cc2)NC(=O)[C@H](Cc2ccc(-c3ccccc3)cc2)NC(=O)[C@H](CC2CCCCC2)NC(=O)CSC[C@@H](C(=O)NCC(N)=O)NC(=O)[C@H](CC(C)C)NC(=O)[C@H](Cc2cnc[nH]2)NC(=O)[C@H](C(C)C)NC(=O)[C@@H]2CCCN2C1=O [Example 307] ({CH2CO}-[Cha][Bip][Bip(4'-NH)](Benzoyl(4-Ph))[Sar]HD[dR]IPVHLCG-NH2; thioether N-13) | 50 to 200 nM |  |
| CC[C@H](C)[C@@H]1NC(=O)[C@@H](CCCNC(=N)N)NC(=O)[C@H](CC(=O)O)NC(=O)[C@H](Cc2cnc[nH]2)NC(=O)CN(C)C(=O)[C@H](Cc2ccc(-c3ccc(NC(=O)c4cccc(OCC(=O)O)c4)cc3)cc2)NC(=O)[C@H](Cc2ccc(-c3ccccc3)cc2)NC(=O)[C@H](CC2CCCCC2)NC(=O)CSC[C@@H](C(=O)NCC(N)=O)NC(=O)[C@H](CC(C)C)NC(=O)[C@H](Cc2cnc[nH]2)NC(=O)[C@H](C(C)C)NC(=O)[C@@H]2CCCN2C1=O [Example 308] ({CH2CO}-[Cha][Bip][Bip(4'-NH)](Benzoyl(3-OCH2COOH))[Sar]HD[dR]IPVHLCG-NH2; thioether N-13) | < 50 nM |  |
| CC(=O)Nc1ccc(-c2ccc(C[C@@H]3NC(=O)[C@H](Cc4ccc(-c5ccccc5)cc4)NC(=O)[C@H](CC4CCCCC4)NC(=O)CSC[C@@H](C(=O)NCC(N)=O)NC(=O)[C@H](CC(C)C)NC(=O)[C@H](Cc4ccc(O)cc4)NC(=O)[C@H](C(C)C)NC(=O)[C@@H]4CCCN4C(=O)[C@H](C(C)C)NC(=O)[C@@H](CCCNC(=N)N)NC(=O)[C@H](CS(=O)(=O)O)NC(=O)[C@@H]4CCCN4C(=O)CN(C)C3=O)cc2)cc1 [Example 309] ({CH2CO}-[Cha][Bip][Bip(4'-NHAc)][Sar]P[Cya][dR]VPVYLCG-NH2; thioether N-13) | 50 to 200 nM |  |
| CC(=O)Nc1ccc(-c2ccc(C[C@@H]3NC(=O)[C@H](Cc4ccc(-c5ccccc5)cc4)NC(=O)[C@H](CC4CCCCC4)NC(=O)CSC[C@@H](C(=O)NCC(N)=O)NC(=O)[C@H](CC(C)C)NC(=O)[C@H](Cc4ccc(O)cc4)NC(=O)[C@H](C4CCCCC4)NC(=O)[C@@H]4CCCN4C(=O)[C@H](C(C)C)NC(=O)[C@@H](CCCNC(=N)N)NC(=O)[C@H](CC(=O)O)NC(=O)[C@@H]4CCCN4C(=O)CN(C)C3=O)cc2)cc1 [Example 310] ({CH2CO}-[Cha][Bip][Bip(4'-NHAc)][Sar]PD[dR]VP[Chg]YLCG-NH2; thioether N-13) | 50 to 200 nM |  |
| CC(=O)Nc1ccc(-c2ccc(C[C@@H]3NC(=O)[C@H](Cc4ccc(-c5ccccc5)cc4)NC(=O)[C@H](CN4CCOCC4)NC(=O)CSC[C@@H](C(=O)NCC(N)=O)NC(=O)[C@H](CC(C)C)NC(=O)[C@H](Cc4cccc(C(N)=O)c4)NC(=O)[C@H](C(C)C)NC(=O)[C@@H]4CCCN4C(=O)[C@H](C(C)C)NC(=O)[C@@H](CCCNC(=N)N)NC(=O)[C@H](CC(=O)O)NC(=O)[C@@H]4CCCN4C(=O)CN(C)C3=O)cc2)cc1 [Example 311] ({CH2CO}-[Ala(morpholin-4-yl)][Bip][Bip(4'-NHAc)][Sar]PD[dR]VPV[Phe(3-CONH2)]LCG-NH2; thioether N-13) | 50 to 200 nM |  |
| CC(=O)Nc1ccc(-c2ccc(C[C@@H]3NC(=O)[C@H](Cc4ccc(-c5ccccc5)cc4)NC(=O)[C@H](CN4CCOCC4)NC(=O)CSC[C@@H](C(=O)NCC(N)=O)NC(=O)[C@H](CC(C)C)NC(=O)[C@H](Cc4cccc(C(N)=O)c4)NC(=O)[C@H](C4CCCCC4)NC(=O)[C@@H]4CCCN4C(=O)[C@H](C(C)C)NC(=O)[C@@H](CCCNC(=N)N)NC(=O)[C@H](CC(=O)O)NC(=O)[C@@H]4CCCN4C(=O)CN(C)C3=O)cc2)cc1 [Example 312] ({CH2CO}-[Ala(morpholin-4-yl)][Bip][Bip(4'-NHAc)][Sar]PD[dR]VP[Chg][Phe(3-CONH2)]LCG-NH2; thioether N-13) | 200 to 2000 nM |  |
| CC(=O)Nc1ccc(-c2ccc(C[C@@H]3NC(=O)[C@H](Cc4ccc(-c5ccc(C(=O)O)cc5)cc4)NC(=O)[C@H](CN4CCOCC4)NC(=O)CSC[C@@H](C(=O)NCC(N)=O)NC(=O)[C@H](CC(C)C)NC(=O)[C@H](Cc4cccc(C(N)=O)c4)NC(=O)[C@H](C(C)C)NC(=O)[C@@H]4CCCN4C(=O)[C@H](C(C)C)NC(=O)[C@@H](CCCNC(=N)N)NC(=O)[C@H](CC(=O)O)NC(=O)[C@@H]4CCCN4C(=O)CN(C)C3=O)cc2)cc1 [Example 313] ({CH2CO}-[Ala(morpholin-4-yl)][Bip(4'-COOH)][Bip(4'-NHAc)][Sar]PD[dR]VPV[Phe(3-CONH2)]LCG-NH2; thioether N-13) | 200 to 2000 nM |  |
| CC(=O)Nc1ccc(-c2ccc(C[C@@H]3NC(=O)[C@H](Cc4ccc(-c5ccc(C(=O)O)cc5)cc4)NC(=O)[C@H](CN4CCOCC4)NC(=O)CSC[C@@H](C(=O)NCC(N)=O)NC(=O)[C@H](CC(C)C)NC(=O)[C@H](Cc4cccs4)NC(=O)[C@H](C4CCCCC4)NC(=O)[C@@H]4CCCN4C(=O)[C@H](C(C)C)NC(=O)[C@@H](CCCNC(=N)N)NC(=O)[C@H](CC(=O)O)NC(=O)[C@@H]4CCCN4C(=O)CN(C)C3=O)cc2)cc1 [Example 314] ({CH2CO}-[Ala(morpholin-4-yl)][Bip(4'-COOH)][Bip(4'-NHAc)][Sar]PD[dR]VP[Chg][2Thi]LCG-NH2; thioether N-13) | 200 to 2000 nM |  |
| CC[C@H](C)[C@@H]1NC(=O)[C@@H](CCCNC(=N)N)NC(=O)[C@H](CC(=O)O)NC(=O)[C@H](Cc2cnc[nH]2)NC(=O)CN(C)C(=O)[C@H](Cc2ccc(-c3ccc(NC(=O)c4ccccc4)cc3)cc2)NC(=O)[C@H](Cc2ccc(-c3ccccc3)cc2)NC(=O)[C@H](CC2CCCCC2)NC(=O)CSC[C@@H](C(=O)NCC(N)=O)NC(=O)[C@H](CC(C)C)NC(=O)[C@H](Cc2cnc[nH]2)NC(=O)[C@H](C(C)C)NC(=O)[C@@H]2CCCN2C1=O [Example 315] ({CH2CO}-[Cha][Bip][Bip(4'-NHBz)][Sar]HD[dR]IPVHLCG-NH2; thioether N-13) |  | < 50 nM |
| CC[C@H](C)[C@@H]1NC(=O)[C@@H](CCCNC(=N)N)NC(=O)[C@H](CC(=O)O)NC(=O)[C@H](Cc2cnc[nH]2)NC(=O)CN(C)C(=O)[C@H](Cc2ccc(-c3ccc(NC(=O)C4CCC(C(=O)O)CC4)cc3)cc2)NC(=O)[C@H](Cc2ccc(-c3ccccc3)cc2)NC(=O)[C@H](CC2CCCCC2)NC(=O)CSC[C@@H](C(=O)NCC(N)=O)NC(=O)[C@H](CC(C)C)NC(=O)[C@H](Cc2cnc[nH]2)NC(=O)[C@H](C(C)C)NC(=O)[C@@H]2CCCN2C1=O (stereo partly drawn) [Example 316] ({CH2CO}-[Cha][Bip][X38][Sar]HD[dR]IPVHLCG-NH2; thioether N-13) | 50 to 200 nM |  |

Reference: patent US20250145665A1, “MACROCYCLIC PEPTIDES USEFUL AS MODULATORS OF TNF ALPHA” (Bristol-Myers Squibb Company, priority 2023, published 2025)
